Measurements taken from patent US4997926A, “Deaminase-stable anti-retroviral 2-halo-2',3'-dideoxy” (Scripps Clinic and Research Foundation, priority 1987, dated 1991).

Experiments:
[1] = test system: HIV in deoxycytidine kinase-deficient CEM variant; assay: HIV p24 (gag) antigen in deoxycytidine kinase deficient CEM variant; assay type: cell-based
Source text: Open symbols show the effects of the respective same dideoxynucelosides on HIV replication in a deoxycytidine kinase-deficient CEM variant.
HIV infection of the CEM T lymphoblastoid cell line was monitored by the release of the HIV p24 (gag) protein into the medium, exactly as described previously [Cleveland et al. (1987) J. Clin. Microbiol., 25:416-420 and Fishbein et al. (1981) Biochem. Med., 26:377-386]. The growth inhibiting effects of the nucleosides toward CEM lymphoblasts, and toward the deoxycytidine kinase deficient mutant, were also monitored as described earlier [Carson et al. (1980) Proc. Natl. Acad. Sci. USA, 77:6865-6869].

HIV in MDM cells = assay: Synthesis of HIV p24 (gag) antigen in monocyte derived macrophages (MDM), 3-day assay; assay type: cell-based; conditions: 0.1-100 uM
Source text: The ability of AZT, ddC and ddA to inhibit synthesis of the p24 (gag) antigen of HIV in CEM and MDM cells was also examined. For CEM cells, the results for all three compounds were similar to those discussed in Mitsuya et al. (1987) Nature, 325:773-778 with ddC providing the most inhibitory effect at the lowest concentration, followed by AZT, followed by ddA in a 3-day assay.

[2] = test system: deoxycytidine kinase and adenosine kinase deficient CEM T cells (clone AraC-8DM10-5); assay type: in vitro ADME, human; conditions: 3 uM, 4 hours
Experimental: ^1 Human CEM T cells, or variants deficient in either deoxycytidine
kinase, or deoxycytidine kinase plus adenosine kinase, were incubated at
density of 5 × 10^7 cells/ml in medium containing 3 uM [8^3
H2-chloro-2',3dideoxyadenosine. After 4 hours, the nucleotides in the
methanolsoluble extracts were determined after separation by HPLC, as
described in the Materials and Methods.
The human T lymphoblastoid cell line, CCRF-CEM, and mutants deficient in either deoxycytidine kinase (clone AraC-8D), or deoxycytidine kinase plus adenosine kinase (clone AraC-8DM10-5) were obtained and propagated as described previously [Foley et al., (1965) Cancer, 18:552-529 and Hershfield et al., (1982) J. Biol. Chem., 257:6380-6386]. For metabolic studies, the cells were cultured in RPMI 1640 medium supplemented with 2 mM L-glutamine and 10 percent fetal bovine serum at a density of 2×10^7 cells/ml in the presence of radiolabelled dideoxynucleosides, as indicated earlier. Some cultures were pre-incubatedfor 30 minutes either with 5 uM 2'-deoxycoformycin or 50 uM coformycin. After 4 hours of incubation the cells were harvested by centrifugation.
The cell pellets were washed with Hank's balanced salt solution at 4 degrees C., and extracted with 1 ml 60 percent methanol/water at -20 degrees C. for 10 minutes. Initial studies included 2',3'-dideoxyadenosine5'-triphosphate as an internal recovery marker. The nucleotides were fractionated by high performance liquid chromatography on an Whatman Partisil-10 SAX column, applying a gradient of zero to 100 percent buffer B in buffer A. Buffer A was 7 mM potassium phosphate pH 3.4. Buffer B was 0.5 M potassium phosphate, pH 3.4, one M KCl. The flow rate was 1.5 ml/minute, 1 minute fractions were collected. Buffer A was used alone for the first ten fractions after which elution with Buffer B began and was continued through fraction thirty, after which the eluting buffer was completely Buffer B. The nucleoside was eluted by about fraction six. The monophosphate eluted between about fractions fifteen and eighteen, the diphosphate between about fractions twenty-seven and thirty-two, and the triphosphate eluted between about fractions fifty-one and about sixty-five.

SMILES | protection from HIV infection, p24 (gag) antigen detection [1] | inhibition of p24 (gag) production from MDM cells (HIV in MDM cells) | Nucleotide Formed, Diphosphate [2] | Nucleotide Formed, Monophosphate [2] | Nucleotide Formed, Triphosphate [2]
Nc1ncnc2c1ncn2[C@H]1CC[C@@H](CO)O1 [2',3'-dideoxyadenosine, reference compound] | equivalent anti-HIV activity | none of those compounds provided any inhibition |  |  | 
Nc1nc(Cl)nc2c1ncn2[C@H]1CC[C@@H](CO)O1 [2-chloro-2',3'-dideoxyadenosine] |  |  | 0.7 pmols/10^8 cells/4 hrs | 0.9 pmols/10^8 cells/4 hrs | 2.5 pmols/10^8 cells/4 hrs
